Data from patent US4440757A, “Pharmaceutical composition comprising derivative of aminobenzoic acid for regulating prostaglandin” (priority 1978, dated 1984).

Assays:
[1] = test system: human dinuclear leukemia J-111 strain; assay: PGs in culture medium of human leukemia cells; assay type: cell-based; details: 50, 500 or 5,000 μg/ml, 7 days
Description: To each 10 ml of a culture medium prepared by adding 10% of bovine foetal serum and one of the present substance, Specimen No. 7, at a concentration of 50, 500 or 5,000 μg/ml to Eagle's culture medium and placed in a polystyrene flask of 75 cm^2 in bottom surface, 5×10^5 cultured cells of human dinuclear leukemia J-111 strain were inoculated and cultured at 37° C. under a mixed atmosphere of 5% by volume of gaseous […] and 95% by volume of air for 7 days. During the cultivation, the culture medium was replaced on the second day and the fourth day with respective fresh ones, and each spent medium was subjected to centrifugation as soon as possible at a temperature of 4° C. at 1,500 rpm to obtain each supernatant liquid of cultured medium. The content of PGE and PGF2-α in each supernatant liquid was determined by ^3 H-Prostaglandin E Radioimmunoassay Kit and ^3 H-Prostaglandin F Radioimmunoassay Kit (manufactured by Clinical assay Co. U.S.A.).

Adenocarcinoma 755 = assay: PGE in tumour of adenocarcinoma 755 and its proliferation; assay type: in vivo, female C57BL/6 mouse; details: 1 g/kg/day oral
Description: Tumour cells of Adenocarcinoma 755 were transplanted subcutaneously to groups of female C57BL/6 mouse of after 8 weeks of birth and while feeding the mice, the present substance, Specimen No. 7, was orally administered every day from the next day of transplantation at a rate of 1 g/kg/day. The mice were sacrificed with ether on 7th or 14th day of transplantation to extirpate the tumour. The thus extirpated tumour was treated by the same procedures as in Example 11 to determine the content of PGE in the tumour.

[2] = test system: spontaneously hypertensive (SHR) male rats; assay: Effect of indomethacin on the hypotensive action; assay type: in vivo, rat (SHR); details: 100 mg/kg p.o.; indomethacin 2.5 mg/kg before and after
Source text: It is known that PGs are produced from arachidonic acid, and cyclooxygenase participates in the conversion of arachidonic acid to PGG2, that indomethacin inactivates the above-mentioned cyclooxygenase and further that the […] of PGs is completely stopped by the administration of indomethacin.
Accordingly, the transition of blood pressure of the spontaneously hypertensive (SHR) male rats 30 to 40 weeks after birth was compared in both cases (1) where only the present substance was administered at a rate of 100 mg/kg and (2) where indomethacin was administered 2 times at a rate of 2.5 mg/kg/time before and after the administration of the present substance. The present substance, Specimen No. 7, was dissolved into distilled water or dispersed in an aqueous 2% solution of carboxymethylcellulose, and forcibly administered orally. Indomethacin was dispersed in an aqueous 2% solution of carboxymethylcellulose, and the dispersion was also forcibly administered orally, one hour before and after the administration of the present substance.

Ehrlich cancer cells = assay: PGE in cancer cells and ascites of mouse transplanted with Ehrlich cancer cells; assay type: in vivo, female ICR-JCL mouse; details: 200 mg/kg/day i.p., 5 days
Description: To groups of female ICR-JCL mouse after 5 weeks of her birth, Ehrlich cancer cells were intraperitoneally transplanted at a rate of 1×10^6 cells/animal and one of the present substances, Specimen No. 7 was administered intraperitoneally to the mice every day from the next day of transplantation for 5 days at a rate of 200 mg/kg/day. The mice were sacrificed with ether on the 6th day of transplantation, and the ascites were collected. After adding tetrasodium ethylenediamminetetraacetate with 1% by weight of aspirin into the ascites, it was centrifugated for 10 min at 1500 rpm and a temperature of 4° C. to separate the cancer cells and the supernatant liquid. The supernatant liquid was further centrifugated at 4° C. and 3000 rpm for 15 min. The separated cancer cells was washed with Hank's solution, and was subjected to centrifugation 5 times at 800 rpm for each 5 min to remove impurities such as erythrocytes, etc. The thus purified cancer cells of 1×10^8 in number were homogenized at 0° C. after addition of 7 ml of methanol, and the homogenate was filtered with filter paper. After adding 14 ml of chloroform to the filtrate and mixing, the mixture was left for 30 min at a temperature of 4° C. […] The content of PGE in the solution and in the supernatant liquid of the ascites was determined by ^3 H-ProstaglandinE Radioimmunoassay Kit. […]

[3] = test system: HeLa S3 cultured cells of human uterine cancer; assay: PGE in culture medium of human uterine cancer cells; assay type: cell-based; details: for Concentration of PGE after culture: 2 days, control 312; for Change of Concentration of PGE during culture: control +120
Description: To each 10 ml of a culture medium prepared by adding 10% bovine foetal serum and one of the present substance, Specimen No. 7, at a concentration of 0 (control), 10, 100, 500, 1,000 or 5,000 μg/ml to Eagle's culture medium and placed in a polystyrene flask of 75 cm^2 in bottom surface, HeLa S3 cultured cells of human uterine cancer were inoculated at a rate of 5×10^5 cells/flask and cultured at 37° C. for 2 days under a mixed atmosphere of 5% by volume of gaseous carbon dioxide and 95% by volume of air. After the incubation was over, the whole cultured medium was centrifugated at a temperature of 4° C. at 1,500 rpm to obtain a supernatant liquid of the cultured medium. The content of PGE in the supernatant liquid was determined by ^3 H-Prostaglandin E Radioimmunoassay Kit.

O=C(O)c1ccc(NC2OC[C@@H](O)[C@H](O)[C@H]2O)cc1 (stereo partly drawn) [Specimen No. 7, Sodium p-aminobenzoate-N--D-xyloside]
rate of decrease of PGE (FIG. 13) [1]: the rate of decrease of PGE was raised as the concentration of the present substance was increased
rate of increase of PGF2-α (FIG. 12) [1]: the rate of increase of PGF2-α was reduced as the concentration of the present substance was increased
Content of PGE in tumour (Adenocarcinoma 755; 7th day, control 0.67): 2.83 ng/g
Weight of tumour (Adenocarcinoma 755; 7th day, control 1.34): 1.04 g
Content of PGE in tumour (Adenocarcinoma 755; 14th day, control 0.34): 1.15 ng/g
Weight of tumour (Adenocarcinoma 755; 14th day, control 4.01): 3.10 g
hypotensive effect with indomethacin (FIG. 9) [2]: disappeared
Content of PGE in supernatant liquid of ascites (Ehrlich cancer cells; control 0.26): 0.12 ng
Content of PGE in 10^8 cells (Ehrlich cancer cells; control 2.36): 3.06 ng
Concentration of PGE after culture ([3]; 10 μg/ml): 40 pg/mL
Change of Concentration of PGE during culture ([3]; 10 μg/ml): -152 pg/mL
Concentration of PGE after culture ([3]; 100 μg/ml): 80 pg/mL
Change of Concentration of PGE during culture ([3]; 100 μg/ml): -112 pg/mL
Concentration of PGE after culture ([3]; 500 μg/ml): 48 pg/mL
Change of Concentration of PGE during culture ([3]; 500 μg/ml): -144 pg/mL
Concentration of PGE after culture ([3]; 1000 μg/ml): 25 pg/mL
Change of Concentration of PGE during culture ([3]; 1000 μg/ml): -167 pg/mL
Concentration of PGE after culture ([3]; 5000 μg/ml): 25 pg/mL
Change of Concentration of PGE during culture ([3]; 5000 μg/ml): -167 pg/mL
